The values below come from PubChem BioAssay AID330 (DTP/NCI, 2004).

Values joined by “and” are separate entries in the source; they are usually repeats but may differ in a detail not shown here. Identical values can stand only once. Toxic doses and inconclusive results are not listed. Square brackets hold non-standard residues; d marks the D form. Peptide text beside a SMILES is read from it. ξ: configuration not given here. ξY = NC(Cc1ccc(O)cc1)C(=O)O

In this test the test system is P388 leukemia ip, CD2F1 mice, survival T/C. Put plainly: NCI In Vivo Anticancer Drug Screen. Data for tumor model P388 Leukemia (intraperitoneal) in CD2F1 (CDF1) mice. The settings on record: endpoint: median survival time, higher = longer survival. The essentials: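 Mice carrying the transplanted tumor received test compound or vehicle. Survival was recorded in each group, and the value is the treated-group measurement divided by that of the vehicle-treated control group.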

Setting [1] is: dose: 50.0 mg/kg/injection, schedule: Q01DX005 (ip), vehicle: Klucel (hydroxypropylcellulose) (HPC).
[2] abbreviates: dose: 100.0 mg/kg/injection, schedule: Q01DX005 (ip), vehicle: Klucel (hydroxypropylcellulose) (HPC).
[3] abbreviates: dose: 200.0 mg/kg/injection, schedule: Q01DX005 (ip), vehicle: Klucel (hydroxypropylcellulose) (HPC).
Where [4] appears, read: dose: 60.0 mg/kg/injection, schedule: Q01DX005 (ip), vehicle: Klucel (hydroxypropylcellulose) (HPC).
The mark [5] stands for this setting: dose: 120.0 mg/kg/injection, schedule: Q01DX005 (ip), vehicle: Klucel (hydroxypropylcellulose) (HPC).
[6] abbreviates: dose: 60.0 mg/kg/injection, schedule: Q01DX005 (ip), vehicle: saline with Tween-80.
The mark [7] stands for this setting: dose: 120.0 mg/kg/injection, schedule: Q01DX005 (ip), vehicle: saline with Tween-80.
Where [8] appears, read: dose: 240.0 mg/kg/injection, schedule: Q01DX005 (ip), vehicle: saline with Tween-80.
The mark [9] stands for this setting: dose: 100.0 mg/kg/injection, schedule: Q01DX001 (ip), vehicle: Klucel (hydroxypropylcellulose) (HPC).
[10] abbreviates: dose: 200.0 mg/kg/injection, schedule: Q01DX001 (ip), vehicle: Klucel (hydroxypropylcellulose) (HPC).
The mark [11] stands for this setting: dose: 400.0 mg/kg/injection, schedule: Q01DX001 (ip), vehicle: Klucel (hydroxypropylcellulose) (HPC).
Setting [12] is: dose: 50.0 mg/kg/injection, schedule: Q01DX009 (ip), vehicle: saline with Tween-80.
[13] abbreviates: dose: 100.0 mg/kg/injection, schedule: Q01DX009 (ip), vehicle: saline with Tween-80.
The mark [14] stands for this setting: dose: 200.0 mg/kg/injection, schedule: Q01DX009 (ip), vehicle: saline with Tween-80.
[15] abbreviates: dose: 50.0 mg/kg/injection, schedule: Q01DX009 (ip), vehicle: saline.
[16] abbreviates: dose: 100.0 mg/kg/injection, schedule: Q01DX009 (ip), vehicle: saline.
The mark [17] stands for this setting: dose: 25.0 mg/kg/injection, schedule: Q01DX009 (ip), vehicle: saline with Tween-80.

As for `COc1cccc2c1C(=O)c1c(O)c3c(c(O)c1C2=O)C[C@@](O)(C(C)=O)CC3OC1CC(NC2CC(=O)N(c3ccccc3)C2=O)C(O)C(C)O1` (some centres not stated), the T/C is 108 % of control (dose: 6.25 mg/kg/injection, schedule: Q04DX003 (ip), vehicle: water); 103 % of control (dose: 12.5 mg/kg/injection, schedule: Q04DX003 (ip), vehicle: water); 103 % of control (dose: 25.0 mg/kg/injection, schedule: Q04DX003 (ip), vehicle: water); 108 % of control (dose: 50.0 mg/kg/injection, schedule: Q04DX003 (ip), vehicle: water).

In the case of `C=CC(=O)OCCCN(CCCC)CCCC`, the T/C runs as follows: (dose: 25.0 mg/kg/injection, schedule: Q01DX005 (ip), vehicle: Klucel (hydroxypropylcellulose) (HPC)) 100 % of control; under setting [1], 95 % of control; under setting [2], 105 % of control; under setting [3], 105 % of control.

Regarding `CC(O)(c1ccco1)c1nc2ccccc2s1` (configuration not stated), the T/C is 101 % of control under setting [4] and 101 % of control under setting [5].

As for `O=C1CCC(c2n[nH]c(=S)n2-c2ccccc2)N1` (configuration not stated), the T/C reads like this: under setting [6], 100 % of control; under setting [7], 97 % of control; under setting [8], 94 % of control.

Regarding `CN(C)C1CS(=O)(=O)OC2=C1CCc1sccc12` (configuration not stated), the T/C under setting [4] was 102 % of control; the T/C under setting [5] was 100 % of control; the T/C (dose: 240.0 mg/kg/injection, schedule: Q01DX005 (ip), vehicle: Klucel (hydroxypropylcellulose) (HPC)) is 97 % of control.

On to `O=C1CC(C2(c3ccc4c(c3)OCO4)SCCCS2)CO1` (configuration not stated), for which the T/C under setting [9] was 101 % of control, the T/C under setting [10] was 106 % of control and the T/C under setting [11] was 99 % of control.

In the case of `CN=c1nc2n3c(cccc3n1)NC(C)=N2`, the T/C runs as follows: under setting [6], 100 % of control; under setting [7], 92 % of control; under setting [8], 99 % of control.

On to `CN=C(N)NN=C(c1ccc(I)cc1)c1ccc(I)cc1`, for which the T/C reads like this: (dose: 25.0 mg/kg/injection, schedule: Q04DX002 (ip), vehicle: saline with Tween-80) 104 % of control; (dose: 50.0 mg/kg/injection, schedule: Q04DX002 (ip), vehicle: saline with Tween-80) 106 % of control; (dose: 100.0 mg/kg/injection, schedule: Q04DX002 (ip), vehicle: saline with Tween-80) 104 % of control.

Turning to `COC(=O)C1=CO[C@@H](OC2OC(CO)C(O)C(O)C2O)[C@@H]2[C@@H](C)[C@@H](O)C[C@H]12` (some centres not stated), the T/C reads like this: (dose: 1.13 mg/kg/injection, schedule: Q01DX005 (ip), vehicle: water) 100 % of control; (dose: 2.25 mg/kg/injection, schedule: Q01DX005 (ip), vehicle: water) 99 % of control; (dose: 4.5 mg/kg/injection, schedule: Q01DX005 (ip), vehicle: water) 93 % of control; (dose: 9.0 mg/kg/injection, schedule: Q01DX005 (ip), vehicle: water) 95 % of control.

Take `NCC(=O)NC(Cc1ccc(O)cc1)C(=O)NCC(=O)O` (configuration not stated) (H-Gly-[ξY]-Gly-OH): the T/C reads like this: under setting [1], 99 % of control; under setting [2], 98 % of control; under setting [3], 98 % of control.

As to `CC(=O)OC1OC(CF)C(OC(C)=O)C1OC(C)=O` (configuration not stated), the T/C reads like this: (dose: 50.0 mg/kg/injection, schedule: Q04DX003 (ip), vehicle: saline with Tween-80) 112 % of control; (dose: 100.0 mg/kg/injection, schedule: Q04DX003 (ip), vehicle: saline with Tween-80) 100 % of control; (dose: 200.0 mg/kg/injection, schedule: Q04DX003 (ip), vehicle: saline with Tween-80) 93 % of control.

For `COc1nc2[nH]c(C)cc(=O)c2c2ccccc12`, the T/C is 98 % of control under setting [6] and 98 % of control under setting [7].

With `CCOC(=O)C(C)(C)Oc1cccc2c1S(=O)(=O)c1ccccc1-2`, the T/C runs as follows: under setting [12], 95 % of control; under setting [13], 93 % of control; under setting [14], 100 % of control.

Turning to `COC12C(COC(=O)NCCO)C3=C(C(=O)C(C)=C(N)C3=O)N1CC1NC12` (configuration not stated), the T/C is 122 % of control (dose: 3.12 mg/kg/injection, schedule: Q01DX009 (ip), vehicle: Klucel (hydroxypropylcellulose) (HPC)); 169 % of control (dose: 3.13 mg/kg/injection, schedule: Q01DX009 (ip), vehicle: Klucel (hydroxypropylcellulose) (HPC)); 155 % of control (dose: 4.5 mg/kg/injection, schedule: Q01DX009 (ip), vehicle: Klucel (hydroxypropylcellulose) (HPC)); 163 % of control and 175 % of control (dose: 6.25 mg/kg/injection, schedule: Q01DX009 (ip), vehicle: Klucel (hydroxypropylcellulose) (HPC)); 190 % of control (dose: 9.0 mg/kg/injection, schedule: Q01DX009 (ip), vehicle: Klucel (hydroxypropylcellulose) (HPC)); 160 % of control and 212 % of control (dose: 12.5 mg/kg/injection, schedule: Q01DX009 (ip), vehicle: Klucel (hydroxypropylcellulose) (HPC)). Moreover, the T/C (dose: 18.0 mg/kg/injection, schedule: Q01DX009 (ip), vehicle: Klucel (hydroxypropylcellulose) (HPC)) was 192 % of control and 201 % of control and 238 % of control; the T/C (dose: 25.0 mg/kg/injection, schedule: Q01DX009 (ip), vehicle: Klucel (hydroxypropylcellulose) (HPC)) is 211 % of control and 214 % of control; the T/C (dose: 28.0 mg/kg/injection, schedule: Q01DX009 (ip), vehicle: Klucel (hydroxypropylcellulose) (HPC)) is 181 % of control and 182 % of control; the T/C (dose: 43.0 mg/kg/injection, schedule: Q01DX009 (ip), vehicle: Klucel (hydroxypropylcellulose) (HPC)) is 92 % of control; the T/C (dose: 50.0 mg/kg/injection, schedule: Q01DX009 (ip), vehicle: Klucel (hydroxypropylcellulose) (HPC)) was 104 % of control.

For `NCCC(=O)NC(Cc1cnc[nH]1)C(=O)O` (configuration not stated), the T/C is 104 % of control under setting [15]; 104 % of control under setting [16]; 99 % of control (dose: 200.0 mg/kg/injection, schedule: Q01DX009 (ip), vehicle: saline); 98 % of control (dose: 400.0 mg/kg/injection, schedule: Q01DX009 (ip), vehicle: saline).

Regarding `O=C(O)C(Cc1ccccc1N(CCO)CCO)N1C(=O)c2ccccc2C1=O` (configuration not stated), the T/C reads like this: under setting [17], 99 % of control; under setting [12], 93 % of control; under setting [13], 93 % of control; under setting [14], 96 % of control.

On to `NC(=O)C(CC(C(=O)O)c1ccccc1)c1ccccc1` (configuration not stated), for which the T/C was 99 % of control under setting [9], 96 % of control under setting [10] and 97 % of control under setting [11].

`CCc1c(O)c2c(n(C)c1=O)CC(C)(C)NC2=S`: the T/C is, setting by setting: under setting [4], 100 % of control; under setting [5], 100 % of control.

For the molecule `Clc1ccc([C@H]2N[C@@H]2c2ccccn2)cc1`, the T/C runs as follows: under setting [6], 94 % of control; under setting [7], 103 % of control; under setting [8], 94 % of control.

Regarding `NC(C(=O)O)c1ccc(CO)cc1` (configuration not stated), the T/C is 100 % of control under setting [17]; 86 % of control (dose: 50.0 mg/kg/injection, schedule: Q01DX005 (ip), vehicle: water); 86 % of control under setting [12]; 107 % of control (dose: 100.0 mg/kg/injection, schedule: Q01DX005 (ip), vehicle: water); 106 % of control under setting [13]; 97 % of control (dose: 200.0 mg/kg/injection, schedule: Q01DX005 (ip), vehicle: water).

In the case of `CN(C)[C@@H]1C(=O)C(C(=O)NCNC(CO)(CO)CO)=C(O)[C@@]2(O)C(=O)C3=C(O)c4c(O)cccc4[C@@](C)(O)[C@H]3C[C@@H]12`, the T/C runs as follows: (dose: 25.0 mg/kg/injection, schedule: Q01DX009 (ip), vehicle: saline) 100 % of control; under setting [15], 95 % of control; under setting [16], 100 % of control.

Regarding `CC(C)=C1NC(=O)NC1=O`, the T/C under setting [1] is 101 % of control, the T/C under setting [2] was 101 % of control and the T/C under setting [3] is 102 % of control.

Regarding `OC(C1CCCCC1)C1CCCCC1Cl` (configuration not stated), the T/C reads like this: (dose: 50.0 mg/kg/injection, schedule: Q01DX005 (ip), vehicle: saline with Tween-80) 102 % of control; (dose: 100.0 mg/kg/injection, schedule: Q01DX005 (ip), vehicle: saline with Tween-80) 102 % of control; (dose: 200.0 mg/kg/injection, schedule: Q01DX005 (ip), vehicle: saline with Tween-80) 102 % of control.
